# Assays:
# Set-up in all cases: scale not given here
# [1] = test system: GALAP Galium; assay: Postemergence herbicidal evaluation, GALAP; type: in vivo, Galium aparine; conditions: rated two - three weeks after treatment
# In short: (§1)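 Seedlings grown about two weeks were sprayed with compound in 80/20 acetone/water containing 1.0% methylated seed oil, at the equivalent of about 0.006 to 0.400 kg/ha, through a nozzle at 40 psi. Plants were kept in the greenhouse and rated visually about two to three weeks after treatment.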
# [2] = test system: SETVI Foxtail, Green; assay: Preemergence herbicidal evaluation, SETVI; type: in vivo, Setaria viridis, (L.) Beau; conditions: rated four to five weeks after treatment
# In short: (§2)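 First, seed is blended with potting soil and sown over roughly an inch of soil per cup. Next, the surface is sprayed with an aqueous acetone solution delivering about 0.013–0.800 kg/ha. Finally, cups are grown in the greenhouse and rated after 4–5 weeks.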
# [3] = test system: CHEAL Lambsquarters, Common; assay: Postemergence herbicidal evaluation, CHEAL; type: in vivo, Chenopodium album, L.; conditions: rated two - three weeks after treatment
# In short: as §1
# [4] = test system: IPOHE Morningglory, Ivyleaf; assay: Postemergence herbicidal evaluation, IPOHE; type: in vivo, Ipomoea hederacea, (L.) Jacq.; conditions: rated two - three weeks after treatment
# In short: as §1
# [5] = test system: ZEAMX Corn, Field; assay: Postemergence herbicidal evaluation, ZEAMX; type: in vivo, Zea mays, L. (Sammel-Bezeichnung); conditions: rated two - three weeks after treatment
# In short: as §1
# [6] = test system: IPOHE Morningglory, Ivyleaf; assay: Preemergence herbicidal evaluation, IPOHE; type: in vivo, Ipomoea hederacea, (L.) Jacq.; conditions: rated four to five weeks after treatment
# In short: as §2
# [7] = test system: ABUTH Velvetleaf; assay: Postemergence herbicidal evaluation, ABUTH; type: in vivo, Abutilon theophrasti, Medic.; conditions: rated two - three weeks after treatment
# In short: as §1
# [8] = test system: ABUTH Velvetleaf; assay: Preemergence herbicidal evaluation, ABUTH; type: in vivo, Abutilon theophrasti, Medic.; conditions: rated four to five weeks after treatment
# In short: as §2
# [9] = test system: CASOB Sicklepod; assay: Postemergence herbicidal evaluation, CASOB; type: in vivo, Cassia obtusifolia, L.; conditions: rated two - three weeks after treatment
# In short: as §1
# [10] = test system: TRZAWR Wheat, Winter, cv Riband; assay: Postemergence herbicidal evaluation, TRZAWR; type: in vivo, Triticum aestivum; conditions: rated two - three weeks after treatment
# In short: as §1
# [11] = test system: TRZAWR Wheat, Winter, cv Riband; assay: Preemergence herbicidal evaluation, TRZAWR; type: in vivo, Triticum aestivum; conditions: rated four to five weeks after treatment
# In short: as §2
# [12] = test system: ORYSAT Rice, Tebonnet; assay: Postemergence herbicidal evaluation, ORYSAT; type: in vivo, Oryza sativa, (L.); conditions: rated two - three weeks after treatment
# In short: as §1
# [13] = test system: AMBEL Ragweed, Common; assay: Postemergence herbicidal evaluation, AMBEL; type: in vivo, Ambrosia artemisifolia, L.; conditions: rated two - three weeks after treatment
# In short: as §1
# [14] = test system: ECHOG Barnyardgrass; assay: Preemergence herbicidal evaluation, ECHOG; type: in vivo, Echinochloa crus-galli, (L.) Beau; conditions: rated four to five weeks after treatment
# In short: as §2
# [15] = test system: AMBEL Ragweed, Common; assay: Preemergence herbicidal evaluation, AMBEL; type: in vivo, Ambrosia artemisifolia, L.; conditions: rated four to five weeks after treatment
# In short: as §2
# [16] = test system: GLXMAW Soybean, Williams; assay: Postemergence herbicidal evaluation, GLXMAW; type: in vivo, Glycine max, (L.) Merr. cv Williams; conditions: rated two - three weeks after treatment
# In short: as §1
# [17] = test system: ZEAMX Corn, Field; assay: Preemergence herbicidal evaluation, ZEAMX; type: in vivo, Zea mays, L. (Sammel-Bezeichnung); conditions: rated four to five weeks after treatment
# In short: as §2
# [18] = test system: GLXMAW Soybean, Williams; assay: Preemergence herbicidal evaluation, GLXMAW; type: in vivo, Glycine max, (L.) Merr. cv Williams; conditions: rated four to five weeks after treatment
# In short: as §2
# [19] = test system: CASOB Sicklepod; assay: Preemergence herbicidal evaluation, CASOB; type: in vivo, Cassia obtusifolia, L.; conditions: rated four to five weeks after treatment
# In short: as §2
# [20] = test system: ECHOG Barnyardgrass; assay: Postemergence herbicidal evaluation, ECHOG; type: in vivo, Echinochloa crus-galli, (L.) Beau; conditions: rated two - three weeks after treatment
# In short: as §1
# [21] = test system: ORYSAT Rice, Tebonnet; assay: Preemergence herbicidal evaluation, ORYSAT; type: in vivo, Oryza sativa, (L.); conditions: rated four to five weeks after treatment
# In short: as §2
# [22] = test system: SETVI Foxtail, Green; assay: Postemergence herbicidal evaluation, SETVI; type: in vivo, Setaria viridis, (L.) Beau; conditions: rated two - three weeks after treatment
# In short: as §1
# [23] = test system: CHEAL Lambsquarters, Common; assay: Preemergence herbicidal evaluation, CHEAL; type: in vivo, Chenopodium album, L.; conditions: rated four to five weeks after treatment
# In short: as §2
# [24] = test system: GALAP Galium; assay: Preemergence herbicidal evaluation, GALAP; type: in vivo, Galium aparine; conditions: rated four to five weeks after treatment
# In short: as §2
smiles,measurement,setting,value
COC(=O)COc1ccc(-n2nnc3cc(F)c(-n4c(=O)cc(C(F)(F)F)n(C)c4=O)cc32)cc1 [Example 45],Postemergence herbicidal rating GALAP,[1]; rate 0.008 kg/ha,0.0
same,Postemergence herbicidal rating GALAP,[1]; rate 0.016 kg/ha,0.0
same,Postemergence herbicidal rating GALAP,[1]; rate 0.032 kg/ha,1.0
same,Postemergence herbicidal rating GALAP,[1]; rate 0.062 kg/ha,3.0
same,"Preemergence herbicidal rating, SETVI",[2]; rate 0.016 kg/ha,0.0
same,"Preemergence herbicidal rating, SETVI",[2]; rate 0.032 kg/ha,0.0
same,"Preemergence herbicidal rating, SETVI",[2]; rate 0.062 kg/ha,9.0
same,"Preemergence herbicidal rating, SETVI",[2]; rate 0.125 kg/ha,9.0
same,Postemergence herbicidal rating CHEAL,[3]; rate 0.008 kg/ha,2.0
same,Postemergence herbicidal rating CHEAL,[3]; rate 0.016 kg/ha,4.0
same,Postemergence herbicidal rating CHEAL,[3]; rate 0.032 kg/ha,7.0
same,Postemergence herbicidal rating CHEAL,[3]; rate 0.062 kg/ha,7.0
same,Postemergence herbicidal rating IPOHE,[4]; rate 0.008 kg/ha,9.0
same,Postemergence herbicidal rating IPOHE,[4]; rate 0.016 kg/ha,9.0
same,Postemergence herbicidal rating IPOHE,[4]; rate 0.032 kg/ha,9.0
same,Postemergence herbicidal rating IPOHE,[4]; rate 0.062 kg/ha,9.0
same,Postemergence herbicidal rating ZEAMX,[5]; rate 0.008 kg/ha,7.5
same,Postemergence herbicidal rating ZEAMX,[5]; rate 0.016 kg/ha,8.0
same,Postemergence herbicidal rating ZEAMX,[5]; rate 0.032 kg/ha,8.0
same,Postemergence herbicidal rating ZEAMX,[5]; rate 0.062 kg/ha,9.0
same,"Preemergence herbicidal rating, IPOHE",[6]; rate 0.016 kg/ha,0.0
same,"Preemergence herbicidal rating, IPOHE",[6]; rate 0.032 kg/ha,0.0
same,"Preemergence herbicidal rating, IPOHE",[6]; rate 0.062 kg/ha,0.0
same,"Preemergence herbicidal rating, IPOHE",[6]; rate 0.125 kg/ha,4.0
same,Postemergence herbicidal rating ABUTH,[7]; rate 0.008 kg/ha,9.0
same,Postemergence herbicidal rating ABUTH,[7]; rate 0.016 kg/ha,9.0
same,Postemergence herbicidal rating ABUTH,[7]; rate 0.032 kg/ha,9.0
same,Postemergence herbicidal rating ABUTH,[7]; rate 0.062 kg/ha,9.0
same,"Preemergence herbicidal rating, ABUTH",[8]; rate 0.016 kg/ha,0.0
same,"Preemergence herbicidal rating, ABUTH",[8]; rate 0.032 kg/ha,0.0
same,"Preemergence herbicidal rating, ABUTH",[8]; rate 0.062 kg/ha,4.0
same,"Preemergence herbicidal rating, ABUTH",[8]; rate 0.125 kg/ha,9.0
same,Postemergence herbicidal rating CASOB,[9]; rate 0.008 kg/ha,0.0
same,Postemergence herbicidal rating CASOB,[9]; rate 0.016 kg/ha,0.0
same,Postemergence herbicidal rating CASOB,[9]; rate 0.032 kg/ha,4.0
same,Postemergence herbicidal rating CASOB,[9]; rate 0.062 kg/ha,5.0
same,Postemergence herbicidal rating TRZAWR,[10]; rate 0.008 kg/ha,4.0
same,Postemergence herbicidal rating TRZAWR,[10]; rate 0.016 kg/ha,6.0
same,Postemergence herbicidal rating TRZAWR,[10]; rate 0.032 kg/ha,6.0
same,Postemergence herbicidal rating TRZAWR,[10]; rate 0.062 kg/ha,8.0
same,"Preemergence herbicidal rating, TRZAWR",[11]; rate 0.016 kg/ha,0.0
same,"Preemergence herbicidal rating, TRZAWR",[11]; rate 0.032 kg/ha,0.0
same,"Preemergence herbicidal rating, TRZAWR",[11]; rate 0.062 kg/ha,0.0
same,"Preemergence herbicidal rating, TRZAWR",[11]; rate 0.125 kg/ha,1.0
same,Postemergence herbicidal rating ORYSAT,[12]; rate 0.008 kg/ha,0.5
same,Postemergence herbicidal rating ORYSAT,[12]; rate 0.016 kg/ha,1.0
same,Postemergence herbicidal rating ORYSAT,[12]; rate 0.032 kg/ha,2.0
same,Postemergence herbicidal rating ORYSAT,[12]; rate 0.062 kg/ha,3.5
same,Postemergence herbicidal rating AMBEL,[13]; rate 0.008 kg/ha,2.0
same,Postemergence herbicidal rating AMBEL,[13]; rate 0.016 kg/ha,3.0
same,Postemergence herbicidal rating AMBEL,[13]; rate 0.032 kg/ha,7.0
same,Postemergence herbicidal rating AMBEL,[13]; rate 0.062 kg/ha,9.0
same,"Preemergence herbicidal rating, ECHCG",[14]; rate 0.016 kg/ha,0.0
same,"Preemergence herbicidal rating, ECHCG",[14]; rate 0.032 kg/ha,0.0
same,"Preemergence herbicidal rating, ECHCG",[14]; rate 0.062 kg/ha,0.0
same,"Preemergence herbicidal rating, ECHCG",[14]; rate 0.125 kg/ha,0.0
same,"Preemergence herbicidal rating, AMBEL",[15]; rate 0.016 kg/ha,0.0
same,"Preemergence herbicidal rating, AMBEL",[15]; rate 0.032 kg/ha,0.0
same,"Preemergence herbicidal rating, AMBEL",[15]; rate 0.062 kg/ha,0.0
same,"Preemergence herbicidal rating, AMBEL",[15]; rate 0.125 kg/ha,0.0
same,Postemergence herbicidal rating GLXMAW,[16]; rate 0.008 kg/ha,6.0
same,Postemergence herbicidal rating GLXMAW,[16]; rate 0.016 kg/ha,6.5
same,Postemergence herbicidal rating GLXMAW,[16]; rate 0.032 kg/ha,8.0
same,Postemergence herbicidal rating GLXMAW,[16]; rate 0.062 kg/ha,8.0
same,"Preemergence herbicidal rating, ZEAMX",[17]; rate 0.016 kg/ha,0.0
same,"Preemergence herbicidal rating, ZEAMX",[17]; rate 0.032 kg/ha,0.0
same,"Preemergence herbicidal rating, ZEAMX",[17]; rate 0.062 kg/ha,0.0
same,"Preemergence herbicidal rating, ZEAMX",[17]; rate 0.125 kg/ha,0.0
same,"Preemergence herbicidal rating, GLXMAW",[18]; rate 0.016 kg/ha,0.0
same,"Preemergence herbicidal rating, GLXMAW",[18]; rate 0.032 kg/ha,0.0
same,"Preemergence herbicidal rating, GLXMAW",[18]; rate 0.062 kg/ha,0.0
same,"Preemergence herbicidal rating, GLXMAW",[18]; rate 0.125 kg/ha,1.0
same,"Preemergence herbicidal rating, CASOB",[19]; rate 0.016 kg/ha,0.0
same,"Preemergence herbicidal rating, CASOB",[19]; rate 0.032 kg/ha,0.0
same,"Preemergence herbicidal rating, CASOB",[19]; rate 0.062 kg/ha,0.0
same,Postemergence herbicidal rating ECHCG,[20]; rate 0.008 kg/ha,0.0
same,Postemergence herbicidal rating ECHCG,[20]; rate 0.016 kg/ha,5.0
same,Postemergence herbicidal rating ECHCG,[20]; rate 0.032 kg/ha,8.0
same,Postemergence herbicidal rating ECHCG,[20]; rate 0.062 kg/ha,9.0
same,"Preemergence herbicidal rating, ORYSAT",[21]; rate 0.016 kg/ha,0.0
same,"Preemergence herbicidal rating, ORYSAT",[21]; rate 0.032 kg/ha,0.0
same,"Preemergence herbicidal rating, ORYSAT",[21]; rate 0.062 kg/ha,0.0
same,"Preemergence herbicidal rating, ORYSAT",[21]; rate 0.125 kg/ha,5.0
same,Postemergence herbicidal rating SETVI,[22]; rate 0.008 kg/ha,3.0
same,Postemergence herbicidal rating SETVI,[22]; rate 0.016 kg/ha,8.0
same,Postemergence herbicidal rating SETVI,[22]; rate 0.032 kg/ha,9.0
same,Postemergence herbicidal rating SETVI,[22]; rate 0.062 kg/ha,9.0
same,"Preemergence herbicidal rating, CHEAL",[23]; rate 0.016 kg/ha,0.0
same,"Preemergence herbicidal rating, CHEAL",[23]; rate 0.032 kg/ha,0.0
same,"Preemergence herbicidal rating, CHEAL",[23]; rate 0.062 kg/ha,9.0
same,"Preemergence herbicidal rating, CHEAL",[23]; rate 0.125 kg/ha,9.0
same,"Preemergence herbicidal rating, GALAP",[24]; rate 0.016 kg/ha,0.0
same,"Preemergence herbicidal rating, GALAP",[24]; rate 0.032 kg/ha,0.0
same,"Preemergence herbicidal rating, GALAP",[24]; rate 0.062 kg/ha,4.0
same,"Preemergence herbicidal rating, GALAP",[24]; rate 0.125 kg/ha,4.0

# Reference: patent US20020111274A1, “1-alkyl-3-[1-(substituted phenyl) benzotriazol-6-yl] uracils” (BASF Aktiengesellschaft, priority 2000, published 2002)
